{"source": "paper PMC4057667", "about": "“Study on Biopharmaceutics Classification and Oral Bioavailability of a Novel Multikinase Inhibitor NCE for Cancer Therapy” (International Journal of Molecular Sciences, 2014)", "experiment": "Pharmacokinetic study in beagle dogs", "type": "in vivo", "conditions": "30 mg/kg; for AUC(0-t) / Cmax / MRT / Tmax / half-life / bioavailability: beagle, dog, plasma", "description": "Six healthy beagle dogs (7.97 ± 0.73 kg) were randomly assigned into two groups. NCE was given to the dogs by intragastrical (i.g.) and intravenous (i.v.) administration at a dosage of 30 mg/kg. Blood was collected from the forelimb vein of the dogs at 0.25, 0.5, 0.75, 1, 2, 3, 4, 6, 8, 10, 12 and 24 h. Plasma samples were obtained by centrifuging blood at 3000 rpm for 10 min and were stored at −20 °C. Before analysis, acetonitrile was added into the plasma and the mixture was vortexed for 5 min to precipitate the protein. Then, the samples were centrifuged for 10 min at a speed of 1.3 × 10^4 rpm. The supernatant was collected and the solvent was removed by pressure blowing concentrator. Then, mobile phase was added to dissolve the residual. The concentrations of NCE in plasma were determined by HPLC.\nThe pharmacokinetic parameters were calculated using the pharmacokinetics-intelligent analysis module of DAS 2.1.1 software. Total areas under the concentration-time curve (AUC) after i.g. and i.v. administration were determined by extrapolation from time 0−t (AUC0−t), respectively. The oral bioavailability of NCE was estimated using the ratio of AUC values following i.g. and i.v. administration.", "note": "Where two headings read alike, the source gives them in different places.", "data": [{"smiles": "CNC(=O)c1cc(Oc2ccc(NC(=O)c3cccc(C(F)(F)F)c3)cc2)ccn1.Cc1ccc(S(=O)(=O)O)cc1.O", "note": "[NCE, 2-methylcarbamoyl-4-{4-[3-(trifluoromethyl)benzamido]phenoxy} pyridinium 4-methylbenzenesulfonate monohydrate]", "values": [{"measurement": "i.v./i.g. AUC0−t ratio", "setting": "beagle dogs", "result": 4.19}, {"measurement": "i.v./i.g. Cmax ratio", "setting": "beagle dogs", "result": "about 11.10"}, {"measurement": "AUC(0-t)", "setting": "iv, Beagle 1", "result": 56200, "unit": "ng·h/mL"}, {"measurement": "Cmax", "setting": "iv, Beagle 1", "result": 26000, "unit": "ng/mL"}, {"measurement": "MRT", "setting": "iv, Beagle 1", "result": 1.84, "unit": "h"}, {"measurement": "Tmax", "setting": "iv, Beagle 1", "result": 0.23, "unit": "h"}, {"measurement": "half-life", "setting": "iv, Beagle 1", "result": 6.39, "unit": "h"}, {"measurement": "AUC(0-t)", "setting": "iv, Beagle 2", "result": 34400, "unit": "ng·h/mL"}, {"measurement": "Cmax", "setting": "iv, Beagle 2", "result": 23700, "unit": "ng/mL"}, {"measurement": "MRT", "setting": "iv, Beagle 2", "result": 1.68, "unit": "h"}, {"measurement": "Tmax", "setting": "iv, Beagle 2", "result": 0.3, "unit": "h"}, {"measurement": "half-life", "setting": "iv, Beagle 2", "result": 3.56, "unit": "h"}, {"measurement": "AUC(0-t)", "setting": "iv, Beagle3", "result": 25100, "unit": "ng·h/mL"}, {"measurement": "Cmax", "setting": "iv, Beagle3", "result": 21600, "unit": "ng/mL"}, {"measurement": "MRT", "setting": "iv, Beagle3", "result": 1.35, "unit": "h"}, {"measurement": "Tmax", "setting": "iv, Beagle3", "result": 0.22, "unit": "h"}, {"measurement": "half-life", "setting": "iv, Beagle3", "result": 9.23, "unit": "h"}, {"measurement": "AUC(0-t)", "setting": "iv, mean ± SD, n = 3", "result": "38600 ± 16000", "unit": "ng·h/mL"}, {"measurement": "Cmax", "setting": "iv, mean ± SD, n = 3", "result": "23800 ± 2230", "unit": "ng/mL"}, {"measurement": "MRT", "setting": "iv, mean ± SD, n = 3", "result": "1.62 ± 0.25", "unit": "h"}, {"measurement": "Tmax", "setting": "iv, mean ± SD, n = 3", "result": "0.25 ± 0.04", "unit": "h"}, {"measurement": "half-life", "setting": "iv, mean ± SD, n = 3", "result": "6.39 ± 2.83", "unit": "h"}, {"measurement": "AUC(0-t)", "setting": "po, i.g., Beagle 4", "result": 6860, "unit": "ng·h/mL"}, {"measurement": "Cmax", "setting": "po, i.g., Beagle 4", "result": 3500, "unit": "ng/mL"}, {"measurement": "MRT", "setting": "po, i.g., Beagle 4", "result": 10.8, "unit": "h"}, {"measurement": "Tmax", "setting": "po, i.g., Beagle 4", "result": 2, "unit": "h"}, {"measurement": "half-life", "setting": "po, i.g., Beagle 4", "result": 12.3, "unit": "h"}, {"measurement": "bioavailability", "setting": "po, i.g., Beagle 4, read-out: F, absolute bioavailability", "result": 12.2, "unit": "%"}, {"measurement": "AUC(0-t)", "setting": "po, i.g., Beagle 5", "result": 13600, "unit": "ng·h/mL"}, {"measurement": "Cmax", "setting": "po, i.g., Beagle 5", "result": 860, "unit": "ng/mL"}, {"measurement": "MRT", "setting": "po, i.g., Beagle 5", "result": 10.6, "unit": "h"}, {"measurement": "Tmax", "setting": "po, i.g., Beagle 5", "result": 1.73, "unit": "h"}, {"measurement": "half-life", "setting": "po, i.g., Beagle 5", "result": 17.3, "unit": "h"}, {"measurement": "bioavailability", "setting": "po, i.g., Beagle 5, read-out: F, absolute bioavailability", "result": 39.6, "unit": "%"}, {"measurement": "AUC(0-t)", "setting": "po, i.g., Beagle 6", "result": 7160, "unit": "ng·h/mL"}, {"measurement": "Cmax", "setting": "po, i.g., Beagle 6", "result": 2060, "unit": "ng/mL"}, {"measurement": "MRT", "setting": "po, i.g., Beagle 6", "result": 11.2, "unit": "h"}, {"measurement": "Tmax", "setting": "po, i.g., Beagle 6", "result": 2, "unit": "h"}, {"measurement": "half-life", "setting": "po, i.g., Beagle 6", "result": 14.9, "unit": "h"}, {"measurement": "bioavailability", "setting": "po, i.g., Beagle 6, read-out: F, absolute bioavailability", "result": 28.5, "unit": "%"}, {"measurement": "AUC(0-t)", "setting": "po, i.g., mean ± SD, n = 3", "result": "9210 ± 3820", "unit": "ng·h/mL"}, {"measurement": "Cmax", "setting": "po, i.g., mean ± SD, n = 3", "result": "2140 ± 1320", "unit": "ng/mL"}, {"measurement": "MRT", "setting": "po, i.g., mean ± SD, n = 3", "result": "10.8 ± 0.31", "unit": "h"}, {"measurement": "Tmax", "setting": "po, i.g., mean ± SD, n = 3", "result": "1.91 ± 0.15", "unit": "h"}, {"measurement": "half-life", "setting": "po, i.g., mean ± SD, n = 3", "result": "14.8 ± 2.53", "unit": "h"}, {"measurement": "bioavailability", "setting": "po, i.g., mean ± SD, n = 3, read-out: F, absolute bioavailability", "result": "26.8 ± 13.8", "unit": "%"}]}]}
